# Values of other authors as cited in US20240041893A1, “An Extended-Release Pharmaceutical Formulation of Viloxazine And Process For Preparation Thereof” (Innovate Therapeutics LLC, priority 2023, published 2024).
# Test system: norepinephrine reuptake
smiles,measurement,value
CCOc1ccccc1OC[C@@H]1CNCCO1 [(S)-(−)-isomer],pharmacological activity relative to the (R)-(+)-isomer,five times
